This is an account of results in patent US20250205276A1, “COMPOSITIONS AND METHODS OF TREATMENT OF DISEASE USING COMBINATION OF A NITRODILATOR AND A NITROGEN OXIDE COMPOUND” (LOMA LINDA UNIVERSITY, priority 2022, published 2025).

Like-named read-outs stand apart in the source and are kept apart here.

Data set [1] deals with mesenteric vasculature of rats. As to the kind of experiment: Mesenteric vasodilatory response to nitrodilators after chronic pretreatment of rats. The class given is in vivo. Particulars: for effect of pretreatment on mesenteric vasodilatory response to nitrodilators: pretreatment for four days. As to the method:
(§1) Likewise, NTG has been thought to activate sGC by releasing the NO moiety from its nitrate group via the action of enzymes such as aldehyde dehydrogenase-2. However, this conversion produces nitrite rather than NO, especially at therapeutic NTG concentrations (<1 μM).

The test system of data set [2] is isolated sheep mesenteric arteries. The experiment in a line: Relaxation of endothelium-denuded sheep mesenteric arteries contracted with 5-HT. It counts as cell-based. Particulars: for enabling of inhibition of vasodilation by CPTIO: SOD1 1000 U/ml, converts HNO into NO. As for the experimental part: Isolated sheep mesenteric arteries were denuded of endothelium and contracted with 10 μM 5-HT (n=5). FIG. 5A presents examples of relaxation traces (one animal, six arterial strips) of NTG in the absence and presence of an sGC inhibitor (ODQ) (10 μM) or superoxide dismutase (SOD1) (1000 U/ml, converts HNO into NO), or the extracellular NO scavenger CPTIO (200 μM), or SOD1 and CPTIO together. All traces were normalized for comparison of extent of relaxation.
FIG. 5B is a graphical representation of the amplification of the area in the red circle in ‘A’. FIG. 5C is a graphical representation of the effects of SOD1, CPTIO, SOD1+CPTIO, and ODQ on relaxation in response to Nitroglycerin. FIG. 5D is a graphical representation of the effects of SOD1, CPTIO, and SOD1+CPTIO on relaxation in response to nitrosoglutathione (GSNO). SOD1, via putative conversion of HNO to NO, enables the inhibitory effects of CPTIO on relaxation caused by NTG and GSNO.
As discussed above, there are reasons to doubt whether NO itself is the mediator of sGC activation in the NANOS model. Rather, an equivalent of NO may be released by activation of the NANOS. […] The NO equivalent has HNO-like characteristics. […] Isolated sheep mesenteric arteries were denuded of endothelium and contracted with 10 μM 5-HT (n=5). FIG. 5A presents examples of relaxation traces (one animal, six arterial strips) of NTG in the absence and presence of an sGC inhibitor (ODQ) (10 μM) or superoxide dismutase (SOD1) (1000 U/ml, converts HNO into NO, or the extracellular NO scavenger CPTIO (200 μM), or SOD1 and CPTIO together. All traces were normalized for comparison of extent of relaxation. FIG. 5B is a graphical representation of the amplification of the area in the red circle in ‘A’. FIG. 5C is a graphical representation of the effects of SOD1, CPTIO, SOD1+CPTIO, and ODQ on relaxation in response to Nitroglycerin (NTG). FIG. 5D is a graphical representation of the effects of SOD1, CPTIO, and SOD1+CPTIO on relaxation in response to nitrosoglutathione (GSNO). SOD1, via putative conversion of HNO to NO, enables the inhibitory effects of CPTIO on relaxation caused by NTG and GSNO.

Another data set has as its system sGC-cGMP pathway. As to the kind of experiment: Potentiation of nitrodilator vasodilation by sGC-cGMP pathway agents in vitro. It counts as cell-based. The text has this:
In certain embodiments, the combined application of a nitrodilator and a nitrogen oxide compound is affected by a perturbation in the sGC-cGMP pathway. Vasodilation mediated by the nitrodilator and/or nitrogen oxide compound can be further facilitated by agents that enhance the sGC-cGMP pathway. Such agents include sGC stimulators and activators, cGMP-phosphodiesterase inhibitors, and others. The sGC stimulators directly activate reduced-heme-containing sGC that generates cGMP to cause vasodilation. The sGC activators activate sGC when the heme is oxidized or the heme moiety is missing. A sGC stimulator can be riociguat or vericiguat. The sGC activator can be runcaciguat, cinaciguat, ataciguat, or kynurenine. The cGMP-phosphodiesterase inhibitors, such as sildenafil, vardenafil, and tadalafil, stabilize cGMP via preventing its degradation by phosphodiesterase-5. […] Certain embodiments include methods of treating a vascular condition or a respiratory condition in a human subject by administering a therapeutically effective amount of a nitrogen oxide compound and a cGMP-phosphodiesterase inhibitor. […] The potentiation effects of riociguat and sildenafil on vasodilation by nitrodilators including GSNO have been confirmed in vitro.

In the next data set the test system is isolated arteries. The experiment in a line: Vasodilation of isolated arteries (potency, sustainability). The class given is cell-based. Particulars: read-out: EC50 (vasodilatory sensitivity). As for the experimental part: as §1
The conditions of data set [3]: not told.
The next data set has as its system intact sheep. As to the kind of experiment: Femoral vasodilation in intact sheep treated with L-NAME. The class given is in vivo. Particulars: for femoral vasodilation in response to the SNO: sheep treated with L-NAME.
For data set [4] the following is noted: cited from earlier work; for membrane permeability in words: Hogg et al.
The next data set relates to intact rats. The experiment in a line: Femoral vasodilation in intact rats treated with L-NAME. It counts as in vivo. Particulars: for femoral vasodilation in response to the SNO: rats treated with L-NAME.
Another data set has as its system sheep carotid artery. The experiment in a line: Mobilization of N15-NOx from sheep carotid artery by intraluminal GSNO (GC-MS). Particulars: 2 h, vs control. As to the method: FIG. 4A is an illustration of the protocol. A sheep carotid artery (length 8 cm) was incubated with 10 μM N^15-nitrite in DMEM under 10.5% O2 for 6 h to load the vessel with N^15-NOx (NO metabolites). FIG. 4B is an illustration of the prepared vessels. After extensive washes, the arteries were well sealed and incubated for 2 h with 3 ml 100 μM oxyhemoglobin in HEPES buffer on the extraluminal side and 5 μM GSNO or control (0.7 ml HEPES buffer containing 0.1 mM DTPA) on the luminal side. FIG. 4C is a graphical representation of the response of the arteries exposed to GSNO. The N^15-NOx levels were lower (p=0.0206) in the homogenate of arteries exposed to GSNO. FIG. 4D is a graphical representation of the response of the arteries exposed to intraluminal GSNO. The N^15-NOx in extraluminal buffer was higher (p=0.0400) in the arteries exposed to intraluminal GSNO. N^15-NOx was measured by GC-MS. The results are consistent with intraluminal GSNO stimulating an efflux of NOx from the vascular smooth muscle as manifested by a decrease in intracellular NOx and an increase in extracellular NOx.
DNICs function as an intracellular NO store. NO can be stored as DNICs in ferritin, a cytosolic protein that stores and releases iron in controlled fashion. […] N^15-NOx was measured by GC-MS. […]

Data set [5] has as its system isolated sheep femoral arteries. The experiment in a line: Use-dependent loss of vasodilatory response to GSNO in isolated arteries, potentiation and reversal. The class given is cell-based. As to the method: To increase the store experimentally, isolated sheep femoral arteries were pre-exposed to 1 μM nitrite, a concentration two-to-three orders of magnitude below which nitrite itself causes vasodilation.

Data set [6] is described as follows: Ability to release NO / stability.
In another data set the test system is coronary arteries. The text has this:
SNOs, DNICs, heme-NO, nitroprusside, NTG, and other nitrodilators, dilate vessels via activation of soluble guanylyl cyclase (sGC) in vascular smooth muscle cells. These nitrodilators have potent NO-mimetic vasoactivities despite not releasing requisite amounts of free NO. These nitrodilators activate sGC via a preformed NANOS found within the vascular smooth muscle cell. Other examples of the nitrodilators include, but are not limited to, isosorbide dinitrate, isosorbide mononitrate, and nitrosyl complexes with metals or metalloproteins with metals other than iron.

For another data set, the system named is newborn lambs. The conditions noted are these: low micromolar intravenous nitrite.

In the case of `CNC(=N)NCCC[C@H](N)C(=O)O` [L-NMMA], the “effect of pretreatment on mesenteric vasodilatory response to nitrodilators” value (from here on “effect of pretreatment”) in data set [1] is given as “not observed”.
For the molecule “SOD1: superoxide dismutase, converts HNO into NO”, the “enabling of inhibition of vasodilation by CPTIO” value in data set [2] is given as “enables inhibition of vasodilation by CPTIO”.
For the molecule `CCCc1nn(C)c2c(=O)[nH]c(-c3cc(S(=O)(=O)N4CCN(C)CC4)ccc3OCC)nc12` [sildenafil], the “effect on vasodilation by nitrodilators including GSNO” value in the data set with sGC-cGMP pathway is on record as “potentiation”.
Consider `O=[N+]([O-])OCC(CO[N+](=O)[O-])O[N+](=O)[O-]` [NTG, nitroglycerin], for which, in the data set on isolated arteries, the EC50 is under 100 nM. For the same molecule, in data set [3], the Membrane permeability result is on record as “+”.
For the molecule `CC1(C)N([O])C(c2ccc(C(=O)O)cc2)=[N+]([O-])C1(C)C` [CPTIO], in data set [2] (CPTIO 200 μM), the “effect on NTG- or GSNO-mediated relaxation” value was “does not affect”.
Take `[Cl][Cu]` [CuCl]: in [2], the “enabling of inhibition of vasodilation by CPTIO” value is “enable the inhibitory effects of CPTIO”.
On to `COC(=O)[C@H](N)CCCNC(=N)N[N+](=O)[O-]` [D-NAME, D-NG-Nitro arginine methyl ester], for which, in data set [1], the “effect of chronic pretreatment on mesenteric vasodilation by GSNO, glut-BDNIC and NTG” value is “potentiated”; the “effect of pretreatment” value is “potentiated”.
Regarding `N[C@@H](CCC(=O)N[C@@H](CSN=O)C(=O)NCC(=O)O)C(=O)O` [GSNO, S-nitroso-glutathione], the Membrane permeability entry in [3] is listed as “−”. Moreover, the “femoral vasodilation in response to the SNO” value (“femoral vasodilation” for short) in the data set with intact sheep and in the data set with intact rats was “greatly diminished or even absent” throughout. In addition, the “membrane permeability in words” value in data set [4] is “largely membrane-impermeable”. In [4] (relative to L-cysNO), the “membrane permeability, fold less than L-cysNO” value is 200 fold. In addition, the “N15-NOx levels in homogenate of arteries” value with sheep carotid artery (5 μM GSNO luminal side, p=0.0206) is “lower”. In addition, the “N15-NOx in extraluminal buffer” value in the data set on sheep carotid artery (5 μM intraluminal GSNO, p=0.0400) is on record as “higher”. In addition, in data set [5] (isolated vessels, after repeated exposures to GSNO), the “loss of initial vasodilatory response to GSNO” value was about 50%.
As to `CC1(C)CC(O)CC(C)(C)N1[O]` [TEMPOL], in [2], the “enabling of inhibition of vasodilation by CPTIO” value is listed as “enable the inhibitory effects of CPTIO”.
On to `COC(=O)N(C)c1c(N)nc(-c2nn(Cc3ccccc3F)c3ncccc23)nc1N` [riociguat], for which the “effect on vasodilation by nitrodilators including GSNO” value in the data set with sGC-cGMP pathway is on record as “potentiation”.
For `N[C@@H](CSN=O)C(=O)O` [L-cysNO, S-nitrosocysteine], in data set [3], the Membrane permeability result is “+”. Also, the NO moiety released in [6] (over one hour, presence of metal chelator in PBS) was under 10%. Besides, the “stability, fold less stable than GSNO” value in data set [6] (relative to GSNO) stood at 10 fold. Moreover, the “femoral vasodilation” value in the data set on intact sheep and in the data set on intact rats was “greatly diminished or even absent” throughout. For the same molecule, the “membrane permeability in words” value in data set [4] is recorded as “can be taken up into cells via the L-type amino acid transporter (LAT)”.
For `O=NO` [nitrite], the “effect on NTG tolerance of coronary arteries” value with coronary arteries (in vitro) and in the data set on coronary arteries (in vivo) was “reverting NTG tolerance” throughout. Besides, the “effect on GSNO-mediated vasodilation” value with newborn lambs is “potentiate”. For the same molecule, the “effect on vasodilatory responses to subsequent SNO infusions in femoral arteries” value in the data set on intact sheep (sheep pre-treated with L-NAME, intravenous sub-vasodilatory nitrite) is listed as “potentiated”; with intact rats (rats pre-treated with L-NAME, intravenous sub-vasodilatory nitrite), “potentiated”. Further, the “effect on vasodilatory responses to GSNO” value in data set [5] (arteries pre-exposed to 1 μM nitrite) is “potentiate”. Also, the “attenuation of vasodilatory response to GSNO after repeated GSNO exposure” value in data set [5] (subsequent incubation with 1 μM nitrite for 30 min) was “reversed”.
On to `C=CC1=C(C)c2cc3[n-]c(cc4[n-]c(cc5nc(cc1n2)C(C)=C5C=C)c(C)c4CCC(=O)[O-])c(CCC(=O)[O-])c3C.N#[O+].[Fe].[H+].[H+]` [Heme-NO, nitrosyl-heme], for which the Membrane permeability entry in [3] is listed as “−”.
Take `N[C@H](CSN=O)C(=O)O` [D-cysNO]: in data set [3], the Membrane permeability entry is reported as “−”. For the same molecule, the “femoral vasodilation” value with intact sheep and in the data set on intact rats was “greatly diminished or even absent” throughout. For the same molecule, the “membrane permeability in words” value in [4] is reported as “largely membrane-impermeable”.
As for `COC(=O)[C@@H](N)CCCNC(=N)N[N+](=O)[O-]` [L-NAME], in data set [1], the “effect of chronic pretreatment on mesenteric vasodilation by GSNO, glut-BDNIC and NTG” value is given as “potentiated”; the “effect of pretreatment” value is recorded as “potentiated”.
